Assay results reported in article PMC9421654, “Discovery of Substituted Di(pyridin-2-yl)-1,2,4-thiadiazol-5-amines as Novel Macrofilaricidal Compounds for the Treatment of Human Filarial Infections” (Journal of Medicinal Chemistry, 2022).
Values after ≈ are worked out from the molar mass of the structure shown. Like-named read-outs stand apart in the source and are kept apart here.

Experiments:
[1] = system: O. gutturosa adult male worms; test: O. gutturosa adult worm ex vivo assay, MTT/formazan viability; format: cell-based, Onchocerca gutturosa; details: supplement, SD in brackets in the PDF table, read-out: O. gutturosa EC50 (uM) MTT viability inhibition
Description: (§1) Activity against O. gutturosa adult male worms was determined using reported procedures.[7] The EC50 values were calculated using Microsoft Office Excel (2010) data analysis software. The tested compound is considered active when a motility reduction of ≥50% is observed by comparison to the untreated controls. O. gutturosa adult male worms were obtained postmortem from freshly slaughtered cattle. The worms were dissected from the nuchal ligament connective tissues of naturally infected cattle in Gambia, West Africa; the material was purchased from the International Trypanotolerance Centre, Banjul, from local butchers for use in this study. The adult worms were transferred individually to each well of a sterile 24-well (2 mL) plate (Thermo Fisher Scientific, UK) and maintained for at least 24 h in culture before use. The medium used was a minimum essential medium (MEM) with Earl’s salts and L-glutamine (Life Technologies Ltd., UK) supplemented with 10% heat inactivated newborn calf serum (Life Technologies Ltd., UK), 200 units/mL penicillin, 200 μg/mL streptomycin, and 0.5 μg/mL amphotericin B (Life Technologies Ltd., UK). Only normally active worms were used for the test, and all assays were conducted at 37 °C and 5% CO2. The positive control drug used was Immiticide (melarsomine dihydrochloride, Merial, USA). Known amounts of compounds were solubilized in 1 mL of DMSO. All stock solutions were allowed to stand at room temperature prior to use. The test items (four worms/drug concentration) were compared to untreated controls (six worms) and the positive control (two worms/drug concentration). Drug efficacy was assessed by the measurement of mean worm motility scores on a scale of 0 (immotile) to 10 (maximum) every 24 h, terminating at 120 h, using an Olympus inverted microscope. The results are reported as a percentage of the maximum score obtainable (100%) by calculating the motility index scores. The test drug is considered active when a motility reduction of ≥50% is observed by comparison to the untreated controls. […] In addition, biochemical evaluation of worm viability was assessed using MTT/formazan colorimetry. The MTT assay was carried out after the last motility reading (120 h). Single intact worms were placed in each well of a 48-well plate (Thermo Fisher Scientific, UK) containing 0.5 mL of 0.5 mg/mL MTT (Sigma, UK) in PBS solution and then incubated for 30 min at 37 °C. The worms were removed, blotted carefully, and individually transferred to separate wells of a 96-well microtiter plate, each containing 200 μL of DMSO to solubilize the formazan. After 1 h, the plate was gently agitated to disperse the color evenly and the absorbance value (optical density, OD) of the resulting formazan solution was determined at 490 nm using an absorbance microplate reader (Biotek ELx800, Thermo Fisher Scientific, UK). The results are expressed as the mean OD per drug concentration. Inhibition of formazan formation is correlated with worm damage or death.

[2] = Kinetic solubility measurement; format: physicochemical; details: 10 mM DMSO stock solutions
Description: Kinetic Solubility Measurement: The standard kinetic solubility assay runs on […] concentration range using 10 mM DMSO stock solutions for plating. Single point calibration assay runs in duplicates. Concentration of standards: […] DMSO solutions prepared by diluting 10 mM stock, solution with DMSO. Concentration of samples: 200 µM, 4 µl 10 mM DMSO stock solution diluted with the appropriate buffer to […]. DMSO content:
2%. Buffers: pH=7.4 (0.1M Potassium phosphate buffer, diluted from Sigma 1M P3619-1GA to 0.1 M with MilliQ water), pH=2.2 (0.1M- NaCl pH adjusted with 0.1N HCL), pH=6.8 (0.1M - KH2PO4/K2HPO4), pH=5 (4 .04g of NaOH (Pellets), 8.65g of Glacial Acetic Acid, 11.874g of NaCl. In in 1 liter water. Adjusted to pH to 5 with either 1N NaOH or 1N HCl). The controls were plated from the standard 10 mM DMSO stock and run on the standard concentration (200µM) range of the assay. Incubation time: 24 hours shaking at […] in Millipore Multiscreen HTS filter plate for Aqueous Solubility Assay (MSSLBPC50), on room temperature.
After incubation time filtration with positive pressure manifold was performed. […]

[3] = LogD measurement (octanol-water); format: physicochemical
Description: LogD Measurement: Measurement of octanol-water distribution coefficient of samples using a […]
stock solutions for plating. Aqueous Phase: 100mM Buffer, pH=7.4 (0.1M Potassium phosphate buffer, diluted from Sigma 1M P3619-1GA to 0.1 M with MilliQ water), pH=2.2 (0.1M- NaCl pH adjusted with 0.1N HCL), pH=6.8 (0.1M - KH2PO4/K2HPO4), pH=5 (4 .04g of NaOH (Pellets), 8.65g of Glacial Acetic Acid, 11.874g of NaCl. In in 1 liter water. Adjusted to pH to 5 with either 1N NaOH or 1N HCl); Organic Phase: 1-Octanol (O021). Sample Concentration:
1000uM, […] 10 mM DMSO stock solution diluted in […] of organic Phase and […] of aqueous Phase. DMSO content: 10%. The controls were plated from the standard 10 mM DMSO stock and run on the standard concentration ([…]) range of the assay. Incubation time:
Sonication for 30 minutes followed by 24 hours shaking at 750 rpm in 96 deep well plate (VWR

[4] = system: O. gutturosa adult male worms; test: O. gutturosa adult worm ex vivo assay, motility; format: cell-based, Onchocerca gutturosa
Description: as §1
Data S1. Onchocerca gutturosa adult male worms EC 50 Curves
Plotted using Graph Pad Prism 7.03, least square original fit, sigmoidal, 4PL
The measurement of mean worm motility every 24 h, terminating at 120 h, serial 1 in 4 drug dilutions to find
activity endpoint and produce EC50 values (geomean, n=2) for motility reduction. (4 worms per drug […]

[5] = Liver S9 metabolic stability assay, human; format: in vitro ADME; details: 3 μM, 60 min
Description: (§2) Liver S9 Metabolic Stability Assay: Incubations were performed at 37 °C in a Dubnoff Shaking water bath using 2 mL 96-well incubation plates. Rat and human S9 protein concentrations were 0.75 mg/ml and 1.2 mg/ml, respectively. The final concentrations of NADPH, UDPGA, and GSH were 1, 0.5, and 2.5 mM, and the final concentration of PAPS was 0.05 mg/ml. Substrate concentrations were 3µM, incubation time was 60 minutes, and all tests were done in triplicate. The incubation was conducted in 200 mM Tris buffer containing 2 mM magnesium chloride, pH=7.4 and the total incubation volume was 0.5 ml. Samples were analysed via LC-MS/MS and reported as percentage remaining after incubation for 60 minutes. […]

[6] = Liver S9 metabolic stability assay, rat; format: in vitro ADME; details: 3 μM, 60 min
Description: as §2

[7] = supplement, read-out: measured logD
[8] = Onchocerca gutturosa, read-out: O. gutturosa EC50 μM (SD), ex vivo adult worm motility reduction, SD in brackets
[9] = Onchocerca gutturosa, read-out: O. gutturosa EC50 (uM) motility inhibition, supplement, SD in brackets in the PDF table

| Molecule | EC50 [1] [µM] | solubility kinetic at 24 h [2] [µM] | logD ([3]; pH 7.4) | measured logD ([3]; supplement) | EC50 ([4]; adult worm motility, bound stated, read-out: O. gutturosa EC50) [µM] | EC50 ([4]; supplement, SD in brackets in the PDF table, read-out: O. gutturosa EC50 (uM) motility inhibition) [µM] | Human S9 metabolic stability [5] [% remaining] | Rat S9 metabolic stability [6] [% remaining] | EC50 ([1]; Onchocerca gutturosa) [µM] | logD at 24 h [3, 7] | EC50 [4, 8] [µM] | EC50 [4, 9] [µM] | logD at 24 h ([3]; pH 7.4, read-out: logD) |
| --- | --- | --- | --- | --- | --- | --- | --- | --- | --- | --- | --- | --- | --- |
| 3-(3-Methyl-2-pyridyl)-N-(5-pyrrolidin-1-yl-2-pyridyl)-1,2,4-thiadiazol-5-amine [Compound 21] | 0.14 | 2.17 | 2.65 | 2.65 | < 0.1 | 0.044 | 86 | 61 |  |  |  |  |  |
| Cc1cccnc1Nc1nc(-c2ccc(OC3CCOCC3)cn2)no1 [Compound 6, N-(3-Methylpyridin-2-yl)-3-(5-((tetrahydro-2H-pyran-4-yl)oxy)pyridin-2-yl)-1,2,4-oxadiazol-5-amine] | 4.06 | 57.5 (≈ 20.3 µg/mL) |  |  |  |  | 98 | 85 | 4.1 | 1.7 | 0.07 | 0.072 |  |
| c1ccc(Nc2nc(-c3ccccn3)ns2)nc1 [Compound 9, N,3-Di(pyridin-2-yl)-1,2,4-thiadiazol-5-amine] |  | 8.2 (≈ 2.09 µg/mL) |  |  |  |  | 83 | 83 | 1.1 | 1.8 | 0.16 | 0.155 | 1.8 |
| Cc1cccnc1Nc1nc(-c2ccc(C#N)cn2)ns1 [Compound 13, 6-(5-((3-Methylpyridin-2-yl)amino)-1,2,4-thiadiazol-3-yl)nicotinonitrile] |  | 0.55 (≈ 0.162 µg/mL) |  |  |  |  | 66 | 73 | 20 | 2.75 | 5.8 |  | 2.75 |
| Cc1cccnc1Nc1nc(-c2cc(C#N)ccn2)ns1 [Compound 14] |  | 2.55 (≈ 0.751 µg/mL) |  |  |  |  | 65 | 78 | 4.5 | 2 | 3.1 |  | 2 |
| Cc1cccnc1Nc1nc(-c2cc(C(=O)N(C)C)ccn2)ns1 [Compound 16] |  | 26.5 (≈ 9.02 µg/mL) |  |  |  |  | 89 | 78 | 1.1 | 1.9 | 3.28 |  | 1.9 |
| Cc1cccnc1Nc1nc(-c2cc(C3CCN(C)CC3)ccn2)ns1 [Compound 22] |  | 184 (≈ 67.5 µg/mL) |  |  |  |  | 78 | 81 | 13.1 | 2 | 0.2 | 0.198 | 2 |
| CN1CCC(Oc2ccc(Nc3nc(-c4ccccn4)ns3)nc2)CC1 [Compound 36, N-(5-((1-Methylpiperidin-4-yl)oxy)pyridin-2-yl)-3-(pyridin-2-yl)-1,2,4-thiadiazol-5-amine] |  | 193 (≈ 71.3 µg/mL) |  |  |  |  | 88 | 99 |  | 1.7 | 1.12 |  | 1.7 |
| CC(=O)N(C)c1cc(C(F)(F)F)cnc1Nc1nc(-c2ccccn2)ns1 [Compound 53] |  | 4.05 (≈ 1.6 µg/mL) |  |  |  |  |  |  | 0.15 | 2.2 | 0.05 | 0.047 | 2.2 |
| CC(C)Oc1ccc(-c2nsc(Nc3ncc(C(F)(F)F)cc3C(=O)N(C)C)n2)nc1 [Compound 57] |  | 3.27 (≈ 1.48 µg/mL) |  |  |  |  |  |  | 1.3 | 3.2 | 0.58 | 0.578 | 3.2 |
| CNC(=O)c1cccnc1Nc1nc(-c2ccc(OC(C)C)cn2)ns1 [Compound 60, 2-((3-(5-Isopropoxypyridin-2-yl)-1,2,4-thiadiazol-5-yl)amino)-N-methylnicotinamide] |  | 10.2 (≈ 3.76 µg/mL) |  |  |  |  |  |  | 2.4 | 1.8 | 0.67 |  | 1.8 |
